Laboratory results as given in US20210052563A1, “PROTON PUMP INHIBITORS AND METHODS OF USE IN CHEMORADIATION-INDUCED TISSUE INFLAMMATION AND SCARRING” (Baylor College of Medicine, priority 2018, published 2021).

Assays:
[1] = tested on: bleomycin-induced lung injury; details: systemic administration; cited from earlier work
[2] = tested on: chemotherapy-resistant human cancer cell lines; details: PPI pretreatment vs no pretreatment; melanoma, colon, breast and ovarian cancer cell lines; cited from earlier work
[3] = tested on: radiation-induced dermatitis; test: Mouse model of radiation-induced dermatitis: skin appearance and dermatitis scoring; assay type: in vivo, C57BL/6J mice
Method: In vivo study: mouse model of radiation-induced dermatitis: a 30-day study was conducted using C57BL/6J mice (Jackson Laboratories, Bar Harbor, Me.) to assess the efficacy of dermaprazole in mitigating radiation-induced dermatitis. The experiment consisted of 1 group receiving no radiation (Group 1) and 5 groups receiving radiation (Groups 2 to 6) (Table 2) from an X-ray source. First, all the animals were prepared for experiment by removing hair from the flank area using an electric shaver and hair removal cream. The lack of skin irritation from the shaving procedure was visually confirmed prior to randomization. […] Dermaprazole was evaluated in a prophylactic (treatment schedule from day 1 to day 30) and therapeutic (treatment schedule from day 10 to day 30) course. For the prophylactic course, low dose (1%, Group 2) and high dose (2%, Group 3) of dermaprazole were evaluated. For the therapeutic course (Group 4), only the high dose was evaluated. […] The photographs were blindly evaluated and scored by a certified dermatologist using Common Terminology Criteria for Adverse Events (CTCAE; version 4.0)(79): 0=normal skin appearance; 1=mild erythema; 2=moderate-to-severe erythema; 3=desquamation of 25-50% of irradiated area; 4=desquamation of >50% irradiated area; and 5=frank ulcer. […]

[4] = tested on: radiation-induced dermatitis; test: Mouse model of radiation-induced dermatitis: histopathology (H&E, Masson's Trichrome, CD11b, F4/80); assay type: in vivo, C57BL/6J mice
Method: In vivo study: mouse model of radiation-induced dermatitis: a 30-day study was conducted using C57BL/6J mice (Jackson Laboratories, Bar Harbor, Me.) to assess the efficacy of dermaprazole in mitigating radiation-induced dermatitis. The experiment consisted of 1 group receiving no radiation (Group 1) and 5 groups receiving radiation (Groups 2 to 6) (Table 2) from an X-ray source. First, all the animals were prepared for experiment by removing hair from the flank area using an electric shaver and hair removal cream. The lack of skin irritation from the shaving procedure was visually confirmed prior to randomization. Twenty-four hours later, radiation was delivered to pre-defined area (2×2 cm) on the flank of the animals in Groups 2 to 6. To induce dermatitis, the animals were anesthetized using 4% isoflurane in oxygen until a deep plane of anesthesia was achieved. Subsequently, the animals were placed under lead shielding (Braintree Scientific, Braintree, Mass.) to protect the remaining part of the body and expose the flank to a total radiation dose of 30 Gy fractionated as 2×15 Gy on study days 0 and 7 using the same settings described above. Dermaprazole was evaluated in a prophylactic (treatment schedule from day 1 to day 30) and therapeutic (treatment schedule from day 10 to day 30) course. For the prophylactic course, low dose (1%, Group 2) and high dose (2%, Group 3) of dermaprazole were evaluated. For the therapeutic course (Group 4), only the high dose was evaluated. Similarly, the sham (Group 1) and vehicle (Group 5) groups were treated with placebo cream containing no active drug starting from day 0 of the study. As a positive treatment control, 1% hydrocortisone (Group 6) was applied starting from day 0. […] The photographs were blindly evaluated and scored by a certified dermatologist using Common Terminology Criteria for Adverse Events (CTCAE; version 4.0)(79): 0=normal skin appearance; 1=mild erythema; 2=moderate-to-severe erythema; 3=desquamation of 25-50% of irradiated area; 4=desquamation of >50% irradiated area; and 5=frank ulcer. […]

| Structure (SMILES) | lung inflammation and fibrosis [1] | change of IC50 values of cisplatin, vinblastine and 5-fluorouracil [2] | skin necrosis ([3]; 16 days and 30 days post-irradiation) | animals with no effect on healing of the wounds ([3]; once daily topical, 30-day model) | ulceration (H&E stain) ([4]; day 30) | collagen accumulation (Masson's Trichrome stain) ([4]; days 16 and 30) | CD11b and F4/80 positive inflammatory cells at the injury site ([4]; immunohistochemical staining of irradiated skin) |
| --- | --- | --- | --- | --- | --- | --- | --- |
| COc1ccc2nc([S@@+]([O-])Cc3ncc(C)c(OC)c3C)[nH]c2c1 [esomeprazole] | suppresses lung inflammation and fibrosis | order of magnitude reduction |  |  |  |  |  |
| C[C@]12CCC(=O)C=C1CC[C@@H]1[C@@H]2[C@@H](O)C[C@@]2(C)[C@H]1CC[C@]2(O)C(=O)CO [1% hydrocortisone, hydrocortisone] |  |  | severe skin necrosis | 90% | ulceration is seen by day 30 | Increased collagen deposition | Increased number of inflammatory cells |
